Experimental findings from US20240158446A1, “CYCLIC COMPOUND HAVING SELECTIVE INHIBITORY ACTION ON KRAS OVER HRAS AND NRAS” (CHUGAI SEIYAKU KABUSHIKI KAISHA, priority 2021, published 2024) are described below.

Assay [1] has as its target GDP-bound KRAS wild-type protein (Homo sapiens, UniProt P01116). Nature of the assay: Binding to KRAS by surface plasmon resonance (SPR), Single Cycle Kinetics. The note with it: GDP-bound KRAS wild-type protein, read-out: KRAS KD.
Assay [2] addresses GDP-bound HRAS wild-type protein (Homo sapiens, UniProt P01112). Briefly: Binding to HRAS by surface plasmon resonance (SPR), Single Cycle Kinetics. As to conditions: for HRAS/KRAS (ratio of KD value for HRAS to KD value for KRAS): SPR, GDP-bound HRAS wild-type protein vs GDP-bound KRAS wild-type protein.
Assay [3] relates to human lung cancer strain NCI-H441.
The target in assay [4] is GDP-bound NRAS wild-type protein (Homo sapiens, UniProt P01111). Nature of the assay: Binding to NRAS by surface plasmon resonance (SPR), Single Cycle Kinetics. As to conditions: for NRAS/KRAS (ratio of KD value for NRAS to KD value for KRAS): SPR, GDP-bound NRAS wild-type protein vs GDP-bound KRAS wild-type protein.
Sequence of GDP-bound NRAS wild-type protein (P01111 whole entry): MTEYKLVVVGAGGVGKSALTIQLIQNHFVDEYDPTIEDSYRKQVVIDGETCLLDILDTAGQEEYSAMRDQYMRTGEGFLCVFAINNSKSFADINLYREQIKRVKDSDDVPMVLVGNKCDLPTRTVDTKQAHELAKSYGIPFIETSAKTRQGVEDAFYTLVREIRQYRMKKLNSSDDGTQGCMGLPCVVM
The mark [5] stands for this setting: SPR Single Cycle Kinetics, 1:1 binding model.
The mark [6] stands for this setting: SPR, Single Cycle Kinetics, 1:1 binding model.

Like-named read-outs stand apart in the source and are kept apart here. Where a SMILES comes first, the peptide text is derived from it. Bridges are numbered along the chain shown (N, C = ends). [ ]: non-standard residue; d: D form. The star is where a group is joined. hPhe(3-Cl-4-CF3) = N[C@@H](CCc1ccc(C(F)(F)F)c(Cl)c1)C(=O)O; NPrPhe(4-CF3) = CCCN[C@@H](Cc1ccc(C(F)(F)F)cc1)C(=O)O; NMeGly(cPent) = CN[C@H](C(=O)O)C1CCCC1; cisHyp = O=C(O)[C@@H]1C[C@H](O)CN1; NMeD = CN[C@@H](CC(=O)O)C(=O)O; NMeL = CN[C@@H](CC(C)C)C(=O)O; Morpholide = C1CN(*)CCO1; Ac5c = NC1(C(=O)O)CCCC1; Sar = CNCC(=O)O
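For IC50 in this document: cell proliferation inhibition after four days measured by CellTiter-Glo.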

Sequence of GDP-bound KRAS wild-type protein (P01116 whole entry): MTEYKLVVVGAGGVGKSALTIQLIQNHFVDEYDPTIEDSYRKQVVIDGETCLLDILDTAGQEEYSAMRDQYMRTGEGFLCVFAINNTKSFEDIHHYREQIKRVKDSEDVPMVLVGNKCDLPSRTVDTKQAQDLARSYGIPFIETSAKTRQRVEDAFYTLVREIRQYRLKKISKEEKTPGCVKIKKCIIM
Sequence of GDP-bound HRAS wild-type protein (P01112 whole entry): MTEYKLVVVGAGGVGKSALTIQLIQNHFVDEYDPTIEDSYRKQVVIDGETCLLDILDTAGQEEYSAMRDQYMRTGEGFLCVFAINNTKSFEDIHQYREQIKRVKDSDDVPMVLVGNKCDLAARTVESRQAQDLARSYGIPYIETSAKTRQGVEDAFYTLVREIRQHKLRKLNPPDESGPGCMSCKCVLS

Regarding `CCCN1C(=O)CN(C)C(=O)CN(C)C(=O)[C@H]([C@@H](C)CC)NC(=O)[C@H](CC(C)C)N(C)C(=O)C[C@@H](C(=O)N2CCOCC2)N(C)C(=O)[C@H](C2CCCC2)N(C)C(=O)C2(CCCC2)NC(=O)[C@@H]2C[C@H](O)CN2C(=O)[C@H](CCc2ccc(C(F)(F)F)c(Cl)c2)NC(=O)CN(C)C(=O)[C@@H]1Cc1ccc(C(F)(F)F)cc1` [PP0240] ([NMeL]I[Sar][Sar][NPrPhe(4-CF3)][Sar][hPhe(3-Cl-4-CF3)][cisHyp][Ac5c][NMeGly(cPent)][NMeD]-Morpholide; lactam N-11), the Kd in assay [1] (setting [5]) came to 0.035 nM. Besides, the “HRAS/KRAS (ratio of KD value for HRAS to KD value for KRAS)” value in assay [2] is “C (A compound having a KD ratio of 0.1 or more and less than 3 is denoted as C)”. In assay [3], the IC50 amounted to 7.9 nM. Besides, in assay [4], the “NRAS/KRAS (ratio of KD value for NRAS to KD value for KRAS)” value was “B (a compound having 3 or more and less than 10 is denoted as B)”.

On to `CCCOC[C@H]1C(=O)N[C@@H]([C@@H](C)CC)C(=O)N(C)CC(=O)N(C)[C@H]2C/C=C\CCN(C2=O)[C@@H](Cc2ccc(C)cc2)C(=O)N(C)CC(=O)N[C@@H](CCc2ccc(C(F)(F)F)c(OC)c2)C(=O)N2C[C@@H](C)C[C@H]2C(=O)NC2(CC(C)(C)C2)C(=O)N(C)[C@@H](C2CCCC2)C(=O)N(C)[C@H](C(=O)N(C)CC)CC(=O)N1C` [PP2461], for which, in assay [1] (SPR, Single Cycle Kinetics), the Kd came out at 0.15 nM. The “HRAS/KRAS (ratio of KD value for HRAS to KD value for KRAS)” value in assay [2] was “A (a compound having 10 or more and less than 20 is denoted as A)”. In assay [3], this compound yielded an IC50 of 10.6 nM. Also, the “NRAS/KRAS (ratio of KD value for NRAS to KD value for KRAS)” value in assay [4] was “A (a compound having 10 or more and less than 20 is denoted as A)”.

Regarding `CC[C@H](C)[C@@H]1NC(=O)[C@H](CC2CCC2)N(C)C(=O)C[C@@H](C(=O)N2CCOCC2)N(C)C(=O)[C@H](C2CCCC2)N(C)C(=O)C2(CCC2)NC(=O)[C@@H]2CCCN2C(=O)[C@H](CCc2ccc(C(F)(F)F)c(Cl)c2)NC(=O)CN(C)C(=O)[C@H](Cc2ccc(C(F)(F)F)cc2)N2C[C@H](C)CC[C@@H](C2=O)N(C)C(=O)[C@@H]2CCN2C1=O` [PP1345], the Kd in assay [1] (setting [6]) was 0.71 nM. Further, the “HRAS/KRAS (ratio of KD value for HRAS to KD value for KRAS)” value in assay [2] (KD ratio class) was “B (a compound having 3 or more and less than 10 is denoted as B)”. The same compound had an IC50 in assay [3] of 34.8 nM. For the same compound, the “NRAS/KRAS (ratio of KD value for NRAS to KD value for KRAS)” value in assay [4] (KD ratio class) was “A (a compound having 10 or more and less than 20 is denoted as A)”.

On to `CCO[C@@H]1C[C@H]2C(=O)NC3(CCC3)C(=O)N(C)[C@@H](C3CCCC3)C(=O)N(C)[C@H](C(=O)N(C)C)CC(=O)N(C)[C@@H](CC3CCCC3)C(=O)N[C@@H]([C@@H](C)CC)C(=O)N(C)CC(=O)N(C)[C@H]3C/C=C\CCN(C3=O)[C@@H](Cc3ccc(F)cc3)C(=O)N(C)CC(=O)N[C@@H](CCc3ccc4sccc4c3)C(=O)N2C1` [PP1390], for which, in assay [1] (setting [6]), the Kd worked out at 1.1 nM. In assay [2] (KD ratio class), the “HRAS/KRAS (ratio of KD value for HRAS to KD value for KRAS)” value was “A (a compound having 10 or more and less than 20 is denoted as A)”. In assay [3], the half-maximal inhibitory concentration (IC50) is 305 nM. Besides, in assay [4] (KD ratio class), the “NRAS/KRAS (ratio of KD value for NRAS to KD value for KRAS)” value was “A (a compound having 10 or more and less than 20 is denoted as A)”.

In the case of `CCO[C@@H]1C[C@H]2C(=O)NC3(CCC3)C(=O)N(C)[C@@H](C3CCCC3)C(=O)N(C)[C@H](C)CC(=O)N(C)[C@@H](CC3CC3)C(=O)N[C@@H]([C@@H](C)CC)C(=O)N(C)CC(=O)N(C)[C@H]3C/C=C\CCN(C3=O)[C@@H](Cc3ccc(C)cc3)C(=O)N(C)CC(=O)N[C@@H](CCc3cc(F)c(C(F)(F)F)c(F)c3)C(=O)N2C1` [PP1410], the Kd in assay [1] (setting [6]) was found to be 0.32 nM. The “HRAS/KRAS (ratio of KD value for HRAS to KD value for KRAS)” value in assay [2] (KD ratio class) is “B (a compound having 3 or more and less than 10 is denoted as B)”. In addition, the IC50 in assay [3] is 51 nM. Moreover, in assay [4] (KD ratio class), the “NRAS/KRAS (ratio of KD value for NRAS to KD value for KRAS)” value was “B (a compound having 3 or more and less than 10 is denoted as B)”.

On to `CCO[C@@H]1C[C@H]2C(=O)NC3(CC(C)(C)C3)C(=O)N(C)[C@@H](C3CCCC3)C(=O)N(C)[C@H](C(=O)N(CC)CC)CC(=O)N(C)[C@@H](COC)C(=O)N[C@@H]([C@@H](C)CC)C(=O)N(C)CC(=O)N(C)[C@H]3C/C=C\CCN(C3=O)[C@@H](Cc3ccc(C)cc3)C(=O)N(C)CC(=O)N[C@@H](CCc3ccc(C(F)(F)F)c(OC)c3)C(=O)N2C1` [PP2398], for which the dissociation constant Kd in assay [1] (SPR, Single Cycle Kinetics) worked out at 0.23 nM. Further, the “HRAS/KRAS (ratio of KD value for HRAS to KD value for KRAS)” value in assay [2] is “A (a compound having 10 or more and less than 20 is denoted as A)”. This compound displayed a half-inhibitory concentration (IC50) in assay [3] of 11.4 nM. For the same compound, the “NRAS/KRAS (ratio of KD value for NRAS to KD value for KRAS)” value in assay [4] is “A (a compound having 10 or more and less than 20 is denoted as A)”.

For `CCO[C@@H]1C[C@H]2C(=O)NC3(CC(C)(C)C3)C(=O)N(C)[C@@H](C(CC)CC)C(=O)N(C)[C@H](C(=O)N(C)C)CC(=O)N(C)[C@H]3CCC/C=C/c4ccc(cc4)C[C@@H](C(=O)N(C)CC(=O)N[C@@H](CCc4cc(F)c(C(F)(F)F)c(F)c4)C(=O)N2C1)N1CC/C=C\C[C@@H](C1=O)N(C)C(=O)CN(C1CC1)C(=O)[C@H]([C@@H](C)CC)NC3=O` [PP2955], the Kd in assay [1] (setting [5]) is 0.14 nM. For the same compound, the “HRAS/KRAS (ratio of KD value with respect to GDP-bound HRAS wild-type protein to KD value with respect to KRAS)” value in assay [2] (SPR KD ratio HRAS/KRAS, class symbols) is “A (a compound having 10 or more and less than 20 is denoted as A)”. For the same compound, in assay [3], inhibition was half-maximal at 7.7 nM (IC50). Further, in assay [4] (SPR KD ratio NRAS/KRAS, class symbols), the “NRAS/KRAS (ratio of KD value with respect to GDP-bound NRAS wild-type protein to KD value with respect to KRAS)” value was “A (a compound having 10 or more and less than 20 is denoted as A)”.

On to `CCO[C@@H]1C[C@H]2C(=O)NC3(COC3)C(=O)N(C)[C@@H](C3CCCC3)C(=O)N(C)[C@H](C(=O)N(C)C)CC(=O)N(C)[C@@H](CC)C(=O)N[C@@H]([C@@H](C)CC)C(=O)N(C)CC(=O)N(C)[C@H]3C/C=C\CCN(C3=O)[C@@H](Cc3ccc(C(F)(F)F)cc3)C(=O)N(C)CC(=O)N[C@@H](CCc3cc(F)c(C(F)(F)F)c(F)c3)C(=O)N2C1` [PP1278, (2S,8S,12R,14S,20S,23S,27S,30S,36S,38Z)-20-cyclopentyl-8-[2-[3,5-difluoro-4-(trifluoromethyl)phenyl]ethyl]-12-ethoxy-27-ethyl-N,N,4,19,22,26,32,35-octamethyl-30-[(1S)-1-methylpropyl]-3,6,9,15,18,21,25,28,31,34,42-undecaoxo-2-[[4-(trifluoromethyl)phenyl]methyl]spiro[1,4,7,10,16,19,22,26,29,32,35-undecazatricyclo[34.5.1.0^10,14]dotetracont-38-ene-17,3′-oxetane]-23-carboxamide], for which the Kd in assay [1] (setting [6]) amounted to 0.14 nM. For the same compound, in assay [2] (KD ratio class), the “HRAS/KRAS (ratio of KD value for HRAS to KD value for KRAS)” value was “B (a compound having 3 or more and less than 10 is denoted as B)”. In addition, in assay [3], it took 45.7 nM to reach half-maximal inhibition (IC50). Moreover, the “NRAS/KRAS (ratio of KD value for NRAS to KD value for KRAS)” value in assay [4] (KD ratio class) is “A (a compound having 10 or more and less than 20 is denoted as A)”.

For the compound `CCO[C@@H]1C[C@H]2C(=O)NC3(CCC3)C(=O)N(C)[C@@H](C3CCCC3)C(=O)N(C)[C@H](C(=O)N3CCOCC3)CC(=O)N(C)[C@@H](CC3CCC3)C(=O)N[C@@H]([C@@H](C)CC)C(=O)N(C)CC(=O)N(C)[C@H]3C/C=C\CCN(C3=O)[C@@H](Cc3ccc(C(F)(F)F)cc3)C(=O)N(C)CC(=O)N[C@@H](CCc3cc(F)c(C(F)(F)F)c(F)c3)C(=O)N2C1` [PP1422], in assay [1] (setting [6]), the Kd is 0.22 nM. For the same compound, the “HRAS/KRAS (ratio of KD value for HRAS to KD value for KRAS)” value in assay [2] (KD ratio class) was “A (a compound having 10 or more and less than 20 is denoted as A)”. Moreover, the IC50 in assay [3] came out at 14.1 nM. Further, the “NRAS/KRAS (ratio of KD value for NRAS to KD value for KRAS)” value in assay [4] (KD ratio class) is listed as “AA (a compound having 20 or more is denoted as AA)”.
